Drawing on ChEMBL document CHEMBL6078691, “Modulating Phosphorylation by Proximity-Inducing Modalities for Cancer Therapy” (J Med Chem, 2024), this text covers IC50 and inhibition for four compounds.

Assay [1] has as its target T1, Epidermal growth factor receptor (Homo sapiens, UniProt P00533). In words: Inhibition of EGFR (unknown origin).
Assay [2] has as its target Microtubule-associated protein tau (Homo sapiens, UniProt P10636). In words: Inhibition of tau phosphorylation (unknown origin).
In assay [3] the target is T1, Epidermal growth factor receptor. Nature of the assay: Inhibition of EGFR (unknown origin) at 0.5 uM relative to control.

T1 sequence (P00533 whole entry): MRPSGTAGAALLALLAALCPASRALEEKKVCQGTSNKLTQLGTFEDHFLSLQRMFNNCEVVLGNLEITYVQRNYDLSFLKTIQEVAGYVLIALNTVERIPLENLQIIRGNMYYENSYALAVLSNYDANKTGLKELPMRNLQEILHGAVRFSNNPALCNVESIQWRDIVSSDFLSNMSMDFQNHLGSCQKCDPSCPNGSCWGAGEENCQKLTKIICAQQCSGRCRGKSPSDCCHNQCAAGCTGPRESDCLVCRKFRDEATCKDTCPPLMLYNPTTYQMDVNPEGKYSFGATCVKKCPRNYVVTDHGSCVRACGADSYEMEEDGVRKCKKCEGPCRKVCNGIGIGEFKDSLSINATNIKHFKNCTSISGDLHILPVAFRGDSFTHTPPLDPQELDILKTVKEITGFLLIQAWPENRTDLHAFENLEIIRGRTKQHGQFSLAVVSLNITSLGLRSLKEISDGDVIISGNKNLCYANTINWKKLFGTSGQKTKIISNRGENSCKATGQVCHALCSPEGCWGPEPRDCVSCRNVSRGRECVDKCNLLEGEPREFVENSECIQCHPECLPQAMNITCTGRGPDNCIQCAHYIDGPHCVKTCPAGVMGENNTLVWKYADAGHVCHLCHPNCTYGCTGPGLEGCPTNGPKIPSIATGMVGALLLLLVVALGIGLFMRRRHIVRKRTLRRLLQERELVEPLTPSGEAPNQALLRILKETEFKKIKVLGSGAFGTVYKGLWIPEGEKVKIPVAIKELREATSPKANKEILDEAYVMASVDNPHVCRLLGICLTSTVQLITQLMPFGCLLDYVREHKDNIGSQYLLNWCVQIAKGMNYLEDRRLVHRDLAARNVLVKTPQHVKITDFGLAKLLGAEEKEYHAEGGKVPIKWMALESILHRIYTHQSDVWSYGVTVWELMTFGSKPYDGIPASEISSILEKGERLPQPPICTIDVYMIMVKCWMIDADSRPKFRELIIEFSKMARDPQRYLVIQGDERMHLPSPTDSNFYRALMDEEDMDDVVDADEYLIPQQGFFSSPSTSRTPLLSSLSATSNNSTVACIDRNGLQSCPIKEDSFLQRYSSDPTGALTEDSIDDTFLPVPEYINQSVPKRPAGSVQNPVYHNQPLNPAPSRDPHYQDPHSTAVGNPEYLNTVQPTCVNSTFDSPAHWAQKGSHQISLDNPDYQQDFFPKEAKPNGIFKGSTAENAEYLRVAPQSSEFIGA
Microtubule-associated protein tau, sequence (P10636 whole entry): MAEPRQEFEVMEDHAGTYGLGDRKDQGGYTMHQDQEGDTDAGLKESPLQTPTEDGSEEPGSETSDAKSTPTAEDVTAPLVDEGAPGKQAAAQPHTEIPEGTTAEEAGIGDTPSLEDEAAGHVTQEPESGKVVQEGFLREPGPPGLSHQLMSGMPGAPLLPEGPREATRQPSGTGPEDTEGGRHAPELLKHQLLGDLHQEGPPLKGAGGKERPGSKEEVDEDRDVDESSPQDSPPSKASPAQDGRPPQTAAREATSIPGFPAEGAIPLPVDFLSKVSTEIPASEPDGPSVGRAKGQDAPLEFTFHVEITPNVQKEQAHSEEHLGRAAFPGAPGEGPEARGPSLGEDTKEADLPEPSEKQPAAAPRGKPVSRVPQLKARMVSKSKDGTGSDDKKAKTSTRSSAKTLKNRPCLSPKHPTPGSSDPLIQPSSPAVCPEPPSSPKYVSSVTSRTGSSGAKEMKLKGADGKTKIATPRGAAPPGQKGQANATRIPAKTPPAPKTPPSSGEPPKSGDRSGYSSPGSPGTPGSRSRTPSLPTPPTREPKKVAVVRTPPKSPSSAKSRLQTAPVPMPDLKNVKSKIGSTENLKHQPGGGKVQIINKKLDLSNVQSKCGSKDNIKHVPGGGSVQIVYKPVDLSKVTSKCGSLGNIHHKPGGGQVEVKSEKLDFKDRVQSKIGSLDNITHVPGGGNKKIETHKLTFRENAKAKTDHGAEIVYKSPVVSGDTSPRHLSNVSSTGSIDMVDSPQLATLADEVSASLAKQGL

As usually defined, the IC50 is the concentration needed to halve the response being measured. A lower IC50 goes with inhibition by little substance. Compound `CC[C@H](C(=O)N1CCCC[C@@H]1C(=O)O[C@H](CCc1ccc(OC)c(OC)c1)c1cccc(OCC(=O)NCCC(=O)N2CCN(CCCOc3cc4c(Nc5ccc(F)c(Cl)c5)ncnc4cc3OC)CC2)c1)c1cc(OC)c(OC)c(OC)c1` registered an IC50 in assay [1] of 0.013 µM.

For the compound “H-YQQYQDATADEQGGSGSKKVAVVRTPPKSPRRRRRRRR-OH”, in assay [2], the IC50 is more than 20 µM. Usually inhibition stands for the drop in the measured response relative to a control, in per cent. In assay [3], `CC[C@H](C(=O)N1CCCC[C@@H]1C(=O)O[C@H](CCc1ccc(OC)c(OC)c1)c1cccc(OCC(=O)NCCOCCOCCN(C)C/C=C/C(=O)Nc2cc3c(Nc4ccc(F)c(Cl)c4)ncnc3cc2OC)c1)c1cc(OC)c(OC)c(OC)c1` yielded an inhibition of 90%. In turn, `CC[C@H](C)[C@H](NC(=O)[C@H](CCSC)NC(=O)[C@H](Cc1c[nH]c2ccccc12)NC(=O)[C@@H](NC(=O)[C@@H](N)CC(=O)O)C(C)C)C(=O)N[C@@H](CC(N)=O)C(=O)N[C@@H](CCCCN)C(=O)N[C@@H](CCCCN)C(=O)N[C@@H](CCCNC(=N)N)C(=O)N[C@@H](CCCCN)C(=O)NCCOCCOCCOCCOCCOCCOCCN[C@@H](CCCNC(=N)N)C(=O)N[C@H](C(=O)N1CCC[C@H]1C(=O)N1CCC[C@H]1C(=O)N[C@@H](CCCCN)C(=O)N[C@@H](CO)C(=O)N1CCC[C@H]1C(=O)N[C@@H](CCCNC(=N)N)C(=O)N[C@@H](CCCNC(=N)N)C(=O)N[C@@H](CCCNC(=N)N)C(=O)N[C@@H](CCCNC(=N)N)C(=O)N[C@@H](CCCNC(=N)N)C(=O)N[C@@H](CCCNC(=N)N)C(=O)N[C@@H](CCCNC(=N)N)C(=O)N[C@@H](CCCNC(=N)N)C(=O)O)[C@@H](C)O` yielded an IC50 in assay [2] of 2 µM.
